Patent US20100298141A1, “SUBSTITUTED PYRIDINE N-OXIDE HERBICIDES” (E. I. DU PONT DE NEMOURS AND COMPANY, priority 2007, published 2010)

Columns and labels:
redroot pigweed = experiment: Test A pre-/postemergence greenhouse test; format: in vivo, Amaranthus retroflexus; conditions: for Pigweed plant response rating: 0 to 100 scale
Procedure, shortened: (§1)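 Herbicidal effect is a visual injury score given about ten days post-treatment by comparison with untreated controls. Preemergence plots received a directed spray onto sown loam–sand soil; postemergence plants, at the one- to two-leaf stage and 2–10 cm tall, were sprayed at the same time.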

corn = experiment: Test A pre-/postemergence greenhouse test; format: in vivo, Zea mays; conditions: for Corn plant response rating: 0 to 100 scale
Procedure, shortened: as §1

blackgrass = experiment: Test C pre-/postemergence test; format: in vivo, Alopecurus myosuroides; conditions: Postemergence; for Plant response rating, Blackgrass: scale 0 to 100, 0 no effect, 100 complete control
Description: (§2) Seeds of plant species selected from blackgrass (Alopecurus myosuroides), downy brome (Bromus tectorum), green foxtail (Setaria viridis), Italian ryegrass (Lolium multiflorum), wheat (Triticum aestivum), wild oat (Avena fatua), catchweed bedstraw (Galium aparine), Russian thistle (Salsola kali), […] (Cynodon dactylon), Surinam grass (Brachiaria decumbens), cocklebur (Xanthium strumarium), corn (Zea mays), crabgrass (Digitaria sanguinalis), woolly cupgrass (Eriochloa villosa), giant foxtail (Setaria faberii), Goosegrass (Eleusin indica), johnsongrass (Sorghum halepense), kochia (Kochia scoparia), lambsquarters (Chenopodium album), morningglory (Ipomoea coccinea), eastern black nightshade (Solanum ptycanthum), yellow nutsedge (Cyperus esculentus), pigweed (Amaranthus retroflexus), common ragweed (Ambrosia elation), soybean (Glycine max), common (oilseed) sunflower (Helianthus annuus), and velvetleaf (Abutilon theophrasti) were planted and treated preemergence with test chemicals formulated in a non-phytotoxic solvent mixture which included a surfactant. At the same time, plants selected from these crop and weed species and also winter barley (Hordeum vulgare), canarygrass (Phalaris minor), and chickweed (Stellaria media) were treated with postemergence applications of some of the test chemicals formulated in the same manner. Plants ranged in height from 2 to 18 cm (1- to 4-leaf stage) for postemergence treatments. […] At time of treatment, test pots were flooded to 3 cm above the soil surface, treated by application of test compounds directly to the paddy water, and then maintained at that water depth for the duration of the test. […] A dash (-) response means no test result.

wheat = experiment: Test C pre-/postemergence test; format: in vivo, Triticum aestivum; conditions: Postemergence; for Plant response rating, Wheat: scale 0 to 100, 0 no effect, 100 complete control
Description: as §2

wild oat = experiment: Test C pre-/postemergence test; format: in vivo, Avena fatua; conditions: Postemergence; for Plant response rating, Oat, Wild: scale 0 to 100, 0 no effect, 100 complete control
Description: as §2

bermudagrass = experiment: Test C pre-/postemergence test; format: in vivo, Cynodon dactylon; conditions: Postemergence; for Plant response rating, Bermudagrass: scale 0 to 100, 0 no effect, 100 complete control
Description: as §2

Surinam grass = experiment: Test C pre-/postemergence test; format: in vivo, Brachiaria decumbens; conditions: Postemergence; for Plant response rating, Surinam Grass: scale 0 to 100, 0 no effect, 100 complete control
Description: as §2

crabgrass = experiment: Test C pre-/postemergence test; format: in vivo, Digitaria sanguinalis; conditions: Postemergence; for Plant response rating, Crabgrass, Large: scale 0 to 100, 0 no effect, 100 complete control
Description: as §2

kochia = experiment: Test C pre-/postemergence test; format: in vivo, Kochia scoparia; conditions: Postemergence; for Plant response rating, Kochia: scale 0 to 100, 0 no effect, 100 complete control
Description: as §2

pigweed = experiment: Test C pre-/postemergence test; format: in vivo, Amaranthus retroflexus; conditions: Postemergence; for Plant response rating, Pigweed: scale 0 to 100, 0 no effect, 100 complete control
Description: as §2

velvetleaf = experiment: Test C pre-/postemergence test; format: in vivo, Abutilon theophrasti; conditions: Postemergence; for Plant response rating, Velvetleaf: scale 0 to 100, 0 no effect, 100 complete control
Description: as §2

rice = experiment: Test C flooded paddy test; format: in vivo, Oryza sativa; conditions: Flood
Procedure, shortened: (§3)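 Under a constant 3 cm flood, test compounds went directly into the paddy water. Following 13 to 15 days of greenhouse growth, treated species and controls were compared by eye.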

duck salad = experiment: Test C flooded paddy test; format: in vivo, Heteranthera limosa; conditions: Flood
Procedure, shortened: as §3

barnyardgrass = experiment: Test C flooded paddy test; format: in vivo, Echinochloa crus-galli; conditions: Flood
Procedure, shortened: as §3

[1] = Postemergence, 125 g ai/ha, 0 is no effect, 100 is complete control
[2] = Postemergence, 500 g ai/ha, 0 is no effect, 100 is complete control
[3] = Preemergence, 125 g ai/ha, 0 no effect, 100 complete control
[4] = Preemergence, 500 g ai/ha, 0 to 100 scale where 0 is no effect and 100 is complete control
[5] = 31 g ai/ha, scale 0 to 100 (0 no effect, 100 complete control)
[6] = 62 g ai/ha, scale 0 to 100, 0 no effect, 100 complete control, 13 to 15 days
[7] = 125 g ai/ha, scale 0 to 100, 0 no effect, 100 complete control, 13 to 15 days
[8] = 250 g ai/ha, scale 0 to 100, 0 no effect, 100 complete control, 13 to 15 days

## CC(c1c(C(F)(F)F)nn(C)c1Cl)S(=O)(=O)c1ccc(Cl)c[n+]1[O-] (racemic) [Compound 40]
Redroot pigweed; [1]
  Pigweed plant response rating: 30
Redroot pigweed; [2]
  Pigweed plant response rating: 60
Redroot pigweed; [3]
  Pigweed plant response rating: 60
Redroot pigweed; [4]
  Plant response rating, Pigweed: 100
corn; [1]
  Corn plant response rating: 0
corn; [2]
  Corn plant response rating: 40
corn; [3]
  Corn plant response rating: 0
corn; [4]
  Plant response rating, Corn: 0
blackgrass; 31 g ai/ha
  Plant response rating (0 to 100), Blackgrass: 0
blackgrass; 62 g ai/ha
  Plant response rating, Blackgrass: 0
blackgrass; 125 g ai/ha
  Plant response rating, Blackgrass: 0
blackgrass; 250 g ai/ha
  Plant response rating, Blackgrass: 0
wheat; 31 g ai/ha
  Plant response rating (0 to 100), Wheat: 0
wheat; 62 g ai/ha
  Plant response rating (0 to 100), Wheat: 0
wheat; 125 g ai/ha
  Plant response rating, Wheat: 0
wheat; 250 g ai/ha
  Plant response rating, Wheat: 5
Wild oat; 31 g ai/ha
  Plant response rating (0 to 100), Oat, Wild: 0
Wild oat; 62 g ai/ha
  Plant response rating, Oat, Wild: 0
Wild oat; 125 g ai/ha
  Plant response rating, Oat, Wild: 0
Wild oat; 250 g ai/ha
  Plant response rating, Oat, Wild: 5
bermudagrass; 31 g ai/ha
  Plant response rating (0 to 100), Bermudagrass: 0
bermudagrass; 62 g ai/ha
  Plant response rating, Bermudagrass: 0
bermudagrass; 125 g ai/ha
  Plant response rating, Bermudagrass: 10
bermudagrass; 250 g ai/ha
  Plant response rating, Bermudagrass: 30
Surinam grass; 31 g ai/ha
  Plant response rating (0 to 100), Surinam Grass: 0
Surinam grass; 62 g ai/ha
  Plant response rating (0 to 100), Surinam Grass: 0
Surinam grass; 125 g ai/ha
  Plant response rating, Surinam Grass: 0
Surinam grass; 250 g ai/ha
  Plant response rating, Surinam Grass: 0
crabgrass; 31 g ai/ha
  Plant response rating (0 to 100), Crabgrass, Large: 0
crabgrass; 62 g ai/ha
  Plant response rating, Crabgrass, Large: 0
crabgrass; 125 g ai/ha
  Plant response rating, Crabgrass, Large: 0
crabgrass; 250 g ai/ha
  Plant response rating, Crabgrass, Large: 0
kochia; 31 g ai/ha
  Plant response rating (0 to 100), Kochia: 0
kochia; 62 g ai/ha
  Plant response rating, Kochia: 0
kochia; 125 g ai/ha
  Plant response rating, Kochia: 0
kochia; 250 g ai/ha
  Plant response rating, Kochia: 0
pigweed; 31 g ai/ha
  Plant response rating (0 to 100), Pigweed: 0
pigweed; 62 g ai/ha
  Plant response rating (0 to 100), Pigweed: 0
pigweed; 125 g ai/ha
  Plant response rating, Pigweed: 0
pigweed; 250 g ai/ha
  Plant response rating, Pigweed: 0
velvetleaf; 31 g ai/ha
  Plant response rating (0 to 100), Velvetleaf: 0
velvetleaf; 62 g ai/ha
  Plant response rating (0 to 100), Velvetleaf: 0
velvetleaf; 125 g ai/ha
  Plant response rating, Velvetleaf: 0
velvetleaf; 250 g ai/ha
  Plant response rating, Velvetleaf: 0
rice; [5]
  Plant response rating, Rice: 0
rice; [6]
  Plant response rating, Rice: 15
rice; [7]
  Plant response rating, Rice: 60
rice; [8]
  Plant response rating, Rice: 65
Duck salad; [5]
  Plant response rating, Ducksalad: 20
Duck salad; [6]
  Plant response rating, Ducksalad: 45
Duck salad; [7]
  Plant response rating, Ducksalad: 80
Duck salad; [8]
  Plant response rating, Ducksalad: 90
barnyardgrass; [5]
  Plant response rating, Barnyardgrass: 0
barnyardgrass; [6]
  Plant response rating, Barnyardgrass: 15
barnyardgrass; [7]
  Plant response rating, Barnyardgrass: 60
barnyardgrass; [8]
  Plant response rating, Barnyardgrass: 65
